From PMC8692984 (Frontiers in Pharmacology, 2021)

How the values were obtained:
α7 nAChRs [1] = biological target: T1, α7 nAChRs (Homo sapiens, UniProt P36544); test: cell-based; conditions: Choline EC50 ± SEM at PNU120596-α7 nAChRs
α7 nAChRs [2] = biological target: T1, α7 nAChRs; test: cell-based; conditions: Choline EC50 ± SEM at TQS-α7 nAChRs

T1 sequence (P36544 23-502): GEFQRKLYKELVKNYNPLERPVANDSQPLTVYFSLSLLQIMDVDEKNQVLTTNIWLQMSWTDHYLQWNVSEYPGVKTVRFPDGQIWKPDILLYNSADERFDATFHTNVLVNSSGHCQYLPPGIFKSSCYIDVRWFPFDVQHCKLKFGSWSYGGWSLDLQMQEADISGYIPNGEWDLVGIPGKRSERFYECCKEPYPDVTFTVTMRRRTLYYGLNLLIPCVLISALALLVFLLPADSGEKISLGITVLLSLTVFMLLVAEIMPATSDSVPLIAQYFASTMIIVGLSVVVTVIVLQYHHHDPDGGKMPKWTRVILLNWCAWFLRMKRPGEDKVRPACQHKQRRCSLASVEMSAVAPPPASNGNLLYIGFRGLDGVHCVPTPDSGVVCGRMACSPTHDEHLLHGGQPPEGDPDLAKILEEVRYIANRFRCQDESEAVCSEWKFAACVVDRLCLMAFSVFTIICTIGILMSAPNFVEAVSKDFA

## C[N+](C)(C)CCO [Choline, reference compound]
α7 nAChRs [1]
  EC50: 3 ± 0.26 µM
α7 nAChRs [2]
  EC50: 9 ± 0.9 µM
